Laboratory results from publication PMC5423977, “Safety, pharmacokinetics, and pharmacodynamics of BMS-986142, a novel reversible BTK inhibitor, in healthy participants” (European Journal of Clinical Pharmacology, 2017).
“And” between values parts separate entries of the source, which are not always exact repeats. Equal values may be shown once.

What was measured:
[1] = Stability of BMS-986142 in human EDTA plasma and processed samples (bioanalytical validation); assay type: physicochemical
Experimental: Method validation was carried out according to the Bristol-Myers Squibb Standard Operating Procedures (SOPs) for chromatographic method validation which conforms to the U.S. FDA’s Good Laboratory Practice (GLP) regulations (21 CFR part 58). The validation experiments included but were not limited to the determination of the lower limit of quantification (LLOQ), specificity, accuracy and precision, recovery, and analyte stability under the expected conditions of sample transfer, sample storage, and sample preparation. The LLOQ of the assay was determined to be 1 ng/mL using six different lots of plasma. No interference from the endogenous components and the internal standard was observed.
The accuracy and precision data for BMS-986142, based on the maximum value from all six QC levels, obtained using one-way ANOVA in Watson are listed in Table 1. The recovery of the analyte from human plasma during extraction was determined at 3 ng/mL and 800 ng/mL for BMS-986142, at 3 ng/mL, 30 ng/mL and 750 ng/mL for methotrexate and 7-hydroxymethotrexate, by comparing the response ratios in human plasma samples spiked with the analyte prior to extraction with those spiked post-extraction. The recovery for BMS-986142 is 89-90%. The recoveries for methotrexate and 7-hydroxymethotrexate are 88-94% and 83-88%, respectively. The room temperature, freeze-thaw, and frozen storage stability of BMS-986142 were evaluated in triplicate or quadruplicate using Low QC, High QC, and Dilution QC. The reinjection integrity was assessed by re-injecting an entire run. The deviations of the mean predicted concentrations of the test samples from the nominal concentrations were used as an indicator of the stability of the analyte.

[2] = system: collagen-induced arthritis model; conditions: combined with standard of care agents (e.g., MTX); cited from earlier work
[3] = 12-lead ECG, baseline-corrected QTcF; assay type: in vivo, human; conditions: for Maximum change from baseline in QTcF interval >30-≤60 msec / Maximum change from baseline in QTcF interval >60 msec / Maximum change from baseline in QTcF interval ≤30 msec: n = 6
Experimental: Participants were monitored for adverse events (AEs) throughout the study. Clinical laboratory tests, vital sign measurements, 12-lead ECGs, and physical examinations were performed at selected times throughout the dosing interval. Safety data was recorded in the participants’ medical records, and assessments were performed for emergent AEs or serious AEs (SAEs). For all AEs, causal relationship to the study drug was determined by an investigator. QT signals obtained from 12-lead ECGs were corrected by heart rate using Fridericia’s formula (QTcF). Baseline-corrected QTcF (∆QTcF) were evaluated to determine QT elongation.

[4] = system: CD69 expression on B cells; assay: Ex vivo anti-IgD-dextran induced CD69 expression on B cells in whole blood; assay type: cell-based, human
Experimental: To assess the functional effect of BMS-986142 on a relevant pathway in the targeted cells, whole blood was stimulated ex vivo with anti-IgD-dextran to activate signal transduction through the B cell antigen receptor. B cells, identified by CD20, were assessed for expression of CD69. Blood was incubated without addition of anti-IgD-dextran to serve as a negative control. Samples were incubated for 24 h at 37 °C, and then fixed and stained for CD20 and CD69. CD69 expression was quantified by standardized flow cytometry. Fluorescence intensity was measured and reported in units of mean equivalents of soluble fluorescein (MESF). Background CD69 level was measured from samples without the addition of anti-IgD-dextran and was subtracted from the stimulated value. The anti-IgD specific CD69 induction was used for analysis. The result for each sample was expressed as a percentage inhibition relative to the pre-dose sample.
CD69 inhibition by BMS-986142 was tabulated by treatment and time, and corresponding changes from baseline were calculated and summarized. The inhibition of B cell receptor-mediated CD69 expression by BMS-986142 was descriptively summarized by treatment and study days. An exposure-response analysis was applied to characterize the relationship between BMS-986142 concentration and CD69 inhibition using a Bayesian Emax model. […]

[5] = 19.6 hours at RT in Plasma, Dilution QC 10000.00
[6] = 19.6 hours at RT in Plasma, High QC 800.00
[7] = 19.6 hours at RT in Plasma, Low QC 3.00
[8] = 96 h Processed sample stability, Dilution QC 10000.00
[9] = 96 h Processed sample stability, High QC 800.00
[10] = 96 h Processed sample stability, Low QC 3.00
[11] = 7 days at 5 °C Re-injection integrity, Dilution QC 10000.00
[12] = 7 days at 5 °C Re-injection integrity, High QC 800.00
[13] = 7 days at 5 °C Re-injection integrity, Low QC 3.00
[14] = 327 day at -20 °C in Plasma, Dilution QC 10000.00
[15] = 327 day at -20 °C in Plasma, High QC 800.00
[16] = 327 day at -20 °C in Plasma, Low QC 3.00
[17] = After 4 Freeze-Thaw Cycle in Plasma, Dilution QC 10000.00
[18] = After 4 Freeze-Thaw Cycle in Plasma, High QC 800.00
[19] = After 4 Freeze-Thaw Cycle in Plasma, Low QC 3.00

Structure (SMILES): Cc1c(-c2c(F)cc(C(N)=O)c3[nH]c4c(c23)CC[C@H](C(C)(C)O)C4)cccc1-n1c(=O)c2cccc(F)c2n(C)c1=O [BMS-986142, 6-fluoro-5-(R)-(3-(S)-(8-fluoro-1-methyl-2,4-dioxo-1,2-dihydroquinazolin-3(4H)-yl)-2-methylphenyl)-2-(S)-(2-hydroxypropan-2-yl)-2,3,4,9-tetrahydro-1H-carbazole-8-carboxamide]
- Stability, %Dev [1, 5]: 3.1%
- Stability, Mean Conc. [1, 5]: 10314.35 ng/mL
- Stability, %Dev [1, 6]: 2.0%
- Stability, Mean Conc. [1, 6]: 816.24 ng/mL
- Stability, %Dev [1, 7]: 8.3%
- Stability, Mean Conc. [1, 7]: 3.25 ng/mL
- Stability, %Dev [1, 8]: -3.3%
- Stability, Mean Conc. [1, 8]: 9666.77 ng/mL
- Stability, %Dev [1, 9]: 1.7%
- Stability, Mean Conc. [1, 9]: 813.52 ng/mL
- Stability, %Dev [1, 10]: 4.0%
- Stability, Mean Conc. [1, 10]: 3.12 ng/mL
- Stability, %Dev [1, 11]: 9.9%
- Stability, Mean Conc. [1, 11]: 10986.50 ng/mL
- Stability, %Dev [1, 12]: 4.7%
- Stability, Mean Conc. [1, 12]: 837.90 ng/mL
- Stability, %Dev [1, 13]: 2.7%
- Stability, Mean Conc. [1, 13]: 3.08 ng/mL
- Stability, %Dev [1, 14]: -4.2%
- Stability, Mean Conc. [1, 14]: 9578.40 ng/mL
- Stability, %Dev [1, 15]: 1.9%
- Stability, Mean Conc. [1, 15]: 815.36 ng/mL
- Stability, %Dev [1, 16]: 5.0%
- Stability, Mean Conc. [1, 16]: 3.15 ng/mL
- Stability, %Dev [1, 17]: -7.6%
- Stability, Mean Conc. [1, 17]: 9241.55 ng/mL
- Stability, %Dev [1, 18]: -5.9%
- Stability, Mean Conc. [1, 18]: 752.66 ng/mL
- Stability, %Dev [1, 19]: -6.3%
- Stability, Mean Conc. [1, 19]: 2.81 ng/mL
- Efficacy against disease endpoints in combination [2]: Added benefit against disease endpoints
- Maximum change from baseline in QTcF interval >30-≤60 msec ([3]; MAD 25 mg): 0 N (%)
- Maximum change from baseline in QTcF interval >60 msec ([3]; MAD 25 mg): 0 N (%)
- Maximum change from baseline in QTcF interval ≤30 msec ([3]; MAD 25 mg): 6 (100) N (%)
- Maximum change from baseline in QTcF interval >30-≤60 msec ([3]; MAD 75 mg): 0 N (%)
- Maximum change from baseline in QTcF interval >60 msec ([3]; MAD 75 mg): 0 N (%)
- Maximum change from baseline in QTcF interval ≤30 msec ([3]; MAD 75 mg): 6 (100) N (%)
- Maximum change from baseline in QTcF interval >30-≤60 msec ([3]; MAD 200 mg): 0 N (%)
- Maximum change from baseline in QTcF interval >60 msec ([3]; MAD 200 mg): 0 N (%)
- Maximum change from baseline in QTcF interval ≤30 msec ([3]; MAD 200 mg): 6 (100) N (%)
- Maximum change from baseline in QTcF interval >30-≤60 msec ([3]; MAD 350 mg): 0 N (%)
- Maximum change from baseline in QTcF interval >60 msec ([3]; MAD 350 mg): 0 N (%)
- Maximum change from baseline in QTcF interval ≤30 msec ([3]; MAD 350 mg): 6 (100) N (%)
- Maximum change from baseline in QTcF interval >30-≤60 msec ([3]; SAD 5 mg): 0 N (%)
- Maximum change from baseline in QTcF interval >60 msec ([3]; SAD 5 mg): 0 N (%)
- Maximum change from baseline in QTcF interval ≤30 msec ([3]; SAD 5 mg): 6 (100) N (%)
- Maximum change from baseline in QTcF interval >30-≤60 msec ([3]; SAD 15 mg): 0 N (%)
- Maximum change from baseline in QTcF interval >60 msec ([3]; SAD 15 mg): 0 N (%)
- Maximum change from baseline in QTcF interval ≤30 msec ([3]; SAD 15 mg): 6 (100) N (%)
- Maximum change from baseline in QTcF interval >30-≤60 msec ([3]; SAD 50 mg): 0 N (%)
- Maximum change from baseline in QTcF interval >60 msec ([3]; SAD 50 mg): 0 N (%)
- Maximum change from baseline in QTcF interval ≤30 msec ([3]; SAD 50 mg): 6 (100) N (%)
- Maximum change from baseline in QTcF interval >30-≤60 msec ([3]; SAD 100 mg): 0 N (%)
- Maximum change from baseline in QTcF interval >60 msec ([3]; SAD 100 mg): 0 N (%)
- Maximum change from baseline in QTcF interval ≤30 msec ([3]; SAD 100 mg): 6 (100) N (%)
- Maximum change from baseline in QTcF interval >30-≤60 msec ([3]; SAD 300 mg): 0 N (%)
- Maximum change from baseline in QTcF interval >60 msec ([3]; SAD 300 mg): 0 N (%)
- Maximum change from baseline in QTcF interval ≤30 msec ([3]; SAD 300 mg): 6 (100) N (%)
- Maximum change from baseline in QTcF interval >30-≤60 msec ([3]; SAD 900 mg): 0 N (%)
- Maximum change from baseline in QTcF interval >60 msec ([3]; SAD 900 mg): 0 N (%)
- Maximum change from baseline in QTcF interval ≤30 msec ([3]; SAD 900 mg): 6 (100) N (%)
- Increase from baseline in maximum post-dose QTcF ([3]; SAD and MAD): No participants showed greater than 30 ms increase from baseline
- IC50 ([4]; Homo sapiens, B-cell, plasma concentration, Bayesian Emax model, SAD and MAD data, read-out: IC50, concentration to inhibit 50% of CD69 expression): 145 nM and 0.083 µg/mL
- Mean maximal inhibition of CD69 expression ([4]; dose levels greater than 100 mg): ~100%
